According to paper PMC8159961, “Exploring protein hotspots by optimized fragment pharmacophores” (Nature Communications, 2021):
Values joined by “and” are separate entries in the source; they are usually repeats but may differ in a detail not shown here. Equal values may be shown once. Read-outs that look alike come from different tables or passages of the source.

What was measured:
[1] = target: T1, bovine factor Xa (Bos taurus, UniProt P00743); assay: Protease inhibitory assay, chromogenic substrate S-2222; format: biochemical; conditions: cmpd conc 200 µM; for vinit: replicate values; for Ki: FactorXa, one of two values averaged in Supplementary Data 1, read-out: Ki
T1 construct: bovine factor Xa, Chromogenix, 2 nkat/mL; purchased Chromogenix
T1 sequence (P00743 234-492 limits assumed): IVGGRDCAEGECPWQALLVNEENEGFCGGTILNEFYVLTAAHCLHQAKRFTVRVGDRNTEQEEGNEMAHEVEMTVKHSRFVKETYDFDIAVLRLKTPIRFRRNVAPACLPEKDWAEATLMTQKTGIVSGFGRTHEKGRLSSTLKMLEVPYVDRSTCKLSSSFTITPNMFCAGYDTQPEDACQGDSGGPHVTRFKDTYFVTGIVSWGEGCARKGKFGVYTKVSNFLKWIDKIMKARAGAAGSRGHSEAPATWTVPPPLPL
T1 sequence (P00743 41-180 partner limits assumed): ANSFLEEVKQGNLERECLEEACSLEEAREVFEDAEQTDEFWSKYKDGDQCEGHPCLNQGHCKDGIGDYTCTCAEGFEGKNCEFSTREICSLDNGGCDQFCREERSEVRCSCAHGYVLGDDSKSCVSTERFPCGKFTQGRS

[2] = target: T2, human thrombin (Homo sapiens, UniProt P00734); assay: Protease inhibitory assay, chromogenic substrate S-2238; format: biochemical; conditions: for vinit: replicate values; for Ki: Thrombin, one of two values averaged in Supplementary Data 1, read-out: Ki
T2 construct: human thrombin; purchased Sigma-Aldrich

[3] = FactorXa Ki determination, substrate 100 µM
[4] = FactorXa Ki determination, substrate 200 µM
[5] = FactorXa primary screening, substrate 100 µM
[6] = Thrombin primary screening, substrate 40 µM, cmpd conc 500 µM
[7] = Thrombin Ki determination, substrate 20 µM, cmpd conc 200 µM
[8] = Thrombin Ki determination, substrate 40 µM, cmpd conc 200 µM
[9] = substrate 20 µM, cmpd conc 200 µM
[10] = substrate 40 µM, cmpd conc 200 µM

SMILES | V0 / Vi [1, 5] | vinit [1, 5] | V0 / Vi [2, 6] | vinit [2, 6] | also measured
c1ccc(Nc2nncs2)cc1 [SX-D8] | 1.17 | 15.418 and 15.164 | 0.99 | 30.873 and 31.527 | V0 / Vi [1, 3]: 1.15; vinit, avrg. [1, 3]: 14.126; vinit [1, 3]: 15.1223 and 13.77 and 13.49; V0 / Vi [1, 4]: 1.14; vinit [1, 4]: 30.094 and 32.958 and 33.09; Ki ([1]; substrate 100 µM): 814 µM; Ki ([1]; substrate 200 µM): 652 µM
Clc1ccc2nnnn2n1 [SX-E6] | 1.12 | 15.357 and 15.429 | 0.99 | 32.073 and 28.473 | –
O=C1NC(=O)C2(CCc3ccccc32)N1 (stereo not shown) [SX-B7] | 0.98 | 19.273 and 17.122 | 0.98 | 31.782 and 31.345 | –
c1ccc(-c2ccncc2)cc1 [SX-C2] | 1.01 | 16.764 and 18 | 0.98 | 30.473 and 29.273 | –
Cc1cc(-c2ccccc2)n[nH]1 [SX-A8] | 0.98 | 19.236 and 17.164 | 0.97 | 32.036 and 32.145 | –
c1ccc2c(N3CCNCC3)ccnc2c1 [SX-C4] | 1.03 | 16.357 and 17 | 1.01 | 30.291 and 29.018 | –
O=C(O)c1cccc(Nc2ncccn2)c1 [SX-F5] | 0.98 | 17.143 and 18.071 | 1.09 | 26.836 and 28 | –
NCC1(c2ccccc2)CCOCC1 [SX-F10] | 0.94 | 14.6 and 16.3 | 0.89 | 36.218 and 34.182 | –
CS(=O)(=O)Nc1ccc(C(=O)O)cc1 [SX-G12] | 1.01 | 17.2 and 16.5 | 1.06 | 31.418 and 30.764 | –
c1cnc2cccnc2c1 [SX-A2] | 1.03 | 17.164 and 16.836 | 1.13 | 26.327 and 25.6 | V0 / Vi [2, 7]: 1.14; vinit, avrg. [2, 7]: 23.193; vinit [2, 7]: 23.633 and 22.973 and 22.97; V0 / Vi [2, 8]: 1.07; vinit, avrg. [2, 8]: 31.452; vinit [2, 8]: 33.054 and 31.27 and 30.03; Ki [2, 9]: 160 µM; Ki [2, 10]: 166 µM
O=C(c1ccccc1F)N1CCNCC1 [SX-E12] | 1.28 | 11.3 | 0.98 | 32.036 and 31.782 | V0 / Vi [1, 3]: 1.26; vinit, avrg. [1, 3]: 12.944; vinit [1, 3]: 12.386 and 12.902 and 13.544; V0 / Vi [1, 4]: 1.17; vinit [1, 4]: 30.668 and 30.24 and 32.808; Ki ([1]; substrate 100 µM): 482 µM; Ki ([1]; substrate 200 µM): 538 µM
Cc1nccn1Cc1cccc(C#N)c1 [SX-F8] | 0.98 | 18.582 and 18 | 0.91 | 34 and 33.891 | –
O=C(Nc1ccccc1)C1CC1 [SX-F6] | 0.98 | 18 and 17.071 | 0.98 | 29.527 and 31.309 | –
CC1(C)OC(=O)c2cc(Br)c(O)cc2O1 [SX-C6] | 1.03 | 16.857 and 16.429 | 1.14 | 27.418 and 25.091 | –
CC(=O)c1ccc2c(c1)CCCN2 [SX-C7] | 1.02 | 17.382 and 17.673 | 0.96 | 32.218 and 32.109 | –
Nc1nnc(-c2cccs2)[nH]1 [SX-D3] | 1.09 | 16.545 and 15.782 | 1.08 | 26.655 and 27.673 | V0 / Vi [2, 7]: 1.11; vinit, avrg. [2, 7]: 23.831; vinit [2, 7]: 23.075 and 23.01 and 25.41; V0 / Vi [2, 8]: 1.08; vinit, avrg. [2, 8]: 31.345; vinit [2, 8]: 30.327 and 31.656 and 32.05; Ki [2, 9]: 204 µM; Ki [2, 10]: 158 µM
O=C1CCN(c2ccncc2)CC1 [SX-G7] | 1.03 | 17.5 and 15.6 | 0.90 | 36.109 and 37.055 | –
O=C1CCCc2occc21 [SX-B3] | 1.01 | 17.709 and 16.909 | 0.97 | 30.582 and 29.818 | –
Nc1ccc(SC(F)F)cc1 [SX-D1] | 0.99 | 18.218 and 17.091 | 1.00 | 28.182 and 30.8 | –
O=C(c1ccncc1)N1CCNCC1 [SX-E2] | 0.96 | 17.673 and 18.8 | 0.93 | 31.236 and 31.673 | –

SMILES | V0 / Vi [1, 5] | vinit [1, 5] | V0 / Vi [2, 6] | vinit [2, 6] | also measured
Cc1ccc(-c2ccc(O)cc2)cc1 [SX-D7] | 1.15 | 14.909 and 16.073 | 1.05 | 30.8 and 28.545 | –
O=c1[nH]c2c(s1)CCC2 [SX-C10] | 1.04 | 13.7 and 14.2 | 0.94 | 33.418 and 33.127 | –
CN1CC(=O)NC1=O [SX-B10] | 0.98 | 14 and 15.6 | 0.98 | 32.909 and 30.982 | –
Cn1c(N)nc2ccccc21 [SX-A6] | 1.45 | 10.544 and 13.214 | 0.93 | 31.891 and 32.182 | V0 / Vi [1, 3]: 1.48; vinit, avrg. [1, 3]: 10.970; vinit [1, 3]: 10.624 and 11.848 and 10.44; V0 / Vi [1, 4]: 1.30; vinit [1, 4]: 28.578 and 28.05 and 27.32; Ki ([1]; substrate 100 µM): 257 µM; Ki ([1]; substrate 200 µM): 297 µM
Cc1ccc(CCNc2ccccc2)cn1 [SX-H11] | 0.99 | 15.4 and 17 | 1.00 | 31.714 and 31.42 | –
O=C(O)C1CCN(c2ncccn2)CC1 [SX-E9] | 1.08 | 16.073 and 17.018 | 1.21 | 27.382 and 24 | V0 / Vi [2, 7]: 1.35; vinit, avrg. [2, 7]: 19.600; vinit [2, 7]: 19.72 and 18.944 and 20.14; V0 / Vi [2, 8]: 1.14; vinit, avrg. [2, 8]: 29.629; vinit [2, 8]: 27.932 and 30.186 and 30.77; Ki [2, 9]: 65 µM; Ki [2, 10]: 87 µM
O=C(CN1CCCC1)c1ccccc1Cl [SX-G10] | 1.00 | 17.7 and 16.3 | 0.99 | 33.345 and 33.273 | –
COc1ccc(CN2CCNCC2)cc1F [SX-D11] | 0.84 | 17.75 and 16.65 | 0.91 | 34.582 and 34.364 | –
CC(=O)c1ccc2c(c1)CNCC2 [SX-C8] | 0.98 | 18.691 and 17.818 | 0.98 | 32.218 and 31.018 | –
N[C@H]1c2ccccc2C[C@H]1CO [SX-B5] | 0.91 | 18.071 and 19.643 | 0.98 | 32.873 and 28.182 | –
NC1CCc2ccccc21 (stereo not shown) [SX-B4] | 0.93 | 18.714 and 18.143 | 0.96 | 31.2 and 30.982 | –
Oc1cnc(-c2ccccc2)nc1 [SX-F11] | 1.00 | 14.672 and 14.2 | 1.02 | 30.836 and 30.8 | –
O=c1[nH]ncc2c1oc1ccccc12 [SX-B6] | 1.00 | 17.214 and 17.071 | 1.05 | 28.582 and 28.145 | –
CCc1nccn1CC(=O)O [SX-G11] | 1.08 | 16.214 and 15.4 | 1.02 | 32.764 and 31.636 | –
CC(=O)c1sc(-c2ccc(O)cc2)nc1C [SX-E1] | 1.17 | 15.455 and 14.545 | 1.10 | 25.309 and 28 | V0 / Vi [1, 3]: 1.16; vinit, avrg. [1, 3]: 14.048; vinit [1, 3]: 13.804 and 13.836 and 14.50; V0 / Vi [1, 4]: 1.13; vinit [1, 4]: 32.734 and 31.114 and 32.88; Ki ([1]; substrate 100 µM): 781 µM; Ki ([1]; substrate 200 µM): 687 µM; V0 / Vi [2, 7]: 1.09; vinit, avrg. [2, 7]: 24.296; vinit [2, 7]: 24.026 and 25.131 and 23.73; V0 / Vi [2, 8]: 1.06; vinit, avrg. [2, 8]: 31.885; vinit [2, 8]: 32.585 and 30.957 and 32.11; Ki [2, 9]: 251 µM; Ki [2, 10]: 207 µM
Cc1cnc(C(F)(F)F)cn1 [SX-B9] | 0.98 | 18.8 and 17.6 | 1.01 | 31.164 and 30.509 | –
c1ccc2[nH]ccc2c1 [SX-A4] | 1.05 | 15.929 and 16.714 | 0.97 | 31.418 and 30.036 | –
O=C(O)C1CCCN(C(=O)N2CCCC2)C1 (stereo not shown) [SX-G6] | 1.09 | 16.1 and 15 | 1.18 | 27.345 and 28.364 | –
N#Cc1ccc2ncsc2c1 [SX-C12] | 1.17 | 10.6 and 14 | 0.98 | 31.855 and 32.109 | –
O=C1NC2(CCCC2)Nc2ccccc21 [SX-C9] | 0.98 | 18.873 and 17.6 | 1.01 | 30.218 and 31.018 | –
